From patent US20240270741A1 (Cogent Biosciences, Inc., priority 2023, published 2024) come the findings set out here.

Broadly, the IC50 is the concentration at which inhibition is half-maximal.

In one test the target is FGFR2 (Homo sapiens, UniProt P21802). Briefly: FGFR wild type enzyme assay (HTRF KinEASE-TK), FGFR2. To be noted: Enz FGFR2 (nM).
Sequence of FGFR2 (P21802 399-821 limits assumed): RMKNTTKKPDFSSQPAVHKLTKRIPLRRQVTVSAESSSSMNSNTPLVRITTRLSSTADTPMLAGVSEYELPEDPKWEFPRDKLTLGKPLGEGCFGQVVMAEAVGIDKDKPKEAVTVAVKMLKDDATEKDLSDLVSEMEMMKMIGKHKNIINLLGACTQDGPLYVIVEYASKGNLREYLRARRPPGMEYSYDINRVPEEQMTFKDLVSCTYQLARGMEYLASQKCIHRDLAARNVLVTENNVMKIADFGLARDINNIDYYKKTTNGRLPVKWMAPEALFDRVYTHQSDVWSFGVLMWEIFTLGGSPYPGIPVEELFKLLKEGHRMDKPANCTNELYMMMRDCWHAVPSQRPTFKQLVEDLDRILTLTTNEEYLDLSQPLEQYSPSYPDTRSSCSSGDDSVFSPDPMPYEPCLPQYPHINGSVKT
On to `N#Cc1cnn2cc(-c3cnn([C@H]4CCCNC4)c3)cc(Sc3ncccc3F)c12` [Example 63, 4-[(3-fluoro-2-pyridyl)sulfanyl]-6-[1-[(3S)-3-piperidyl]pyrazol-4-yl]pyrazolo[1,5-a]pyridine-3-carbonitrile], for which half-maximal inhibition (IC50) required 1 nM.
Still for that read-out and setting: the same measure for `Cc1c(-c2cc(Sc3ccccc3C#N)c3c(C#N)cnn3c2)cnn1C1CCNCC1` [Example 104]: 1 nM; for `Cc1ccc(Sc2cc(-c3cnn(C4CCNCC4)c3C)cn3ncc(C#N)c23)nc1C` [Example 129]: 2 nM.

Staying with this test, now noted: Enz FGFR2 (nM), FGFR2 wild type enzyme.
In turn, `Cc1c(-c2cc(Sc3ncccc3F)c3c(C#N)cnn3c2)cnn1C[C@H](C)N(C)C` [Example 182, (S)-6-(1-(2-(dimethylamino)propyl)-5-methyl-1H-pyrazol-4-yl)-4-((3-fluoropyridin-2-yl)thio)pyrazolo[1,5-a]pyridine-3-carbonitrile] had an IC50 of 8 nM.
On the same count and under the same terms, as for `Cc1c(-c2cc(Sc3ncc(F)cc3F)c3c(C#N)cnn3c2)cnn1[C@H]1CCCN(C(=O)CO)C1` [Example 229, (S)-4-((3,5-difluoropyridin-2-yl)thio)-6-(1-(1-(2-hydroxyacetyl)piperidin-3-yl)-5-methyl-1H-pyrazol-4-yl)pyrazolo[1,5-a]pyridine-3-carbonitrile], the figure is 3 nM; as for `C[C@H](O)CN1CC[C@@H](n2cc(-c3cc(Sc4ccccc4C#N)c4c(C#N)cnn4c3)cn2)C1` [Example 169, 4-(2-cyanophenyl)sulfanyl-6-[1-[(3R)-1-[(2S)-2-hydroxypropyl]pyrrolidin-3-yl]pyrazol-4-yl]pyrazolo[1,5-a]pyridine-3-carbonitrile], 0.4 nM.
On the same count and under the same terms, as for `Cc1c(-c2cc(Sc3ncccc3F)c3c(C#N)cnn3c2)cnn1C1CCN(Cc2ccccn2)CC1` [Example 240, 4-((3-fluoropyridin-2-yl)thio)-6-(5-methyl-1-(1-(pyridin-2-ylmethyl)piperidin-4-yl)-1H-pyrazol-4-yl)pyrazolo[1,5-a]pyridine-3-carbonitrile], the figure is 2 nM.
Same read-out and setting: the same measure for `Cc1c(-c2cc(Sc3ccccc3C#N)c3c(C#N)cnn3c2)cnn1C1CCN(C[C@H](C)O)CC1` [Example 142, (S)-4-((2-cyanophenyl)thio)-6-(1-(1-(2-hydroxypropyl)piperidin-4-yl)-5-methyl-1H-pyrazol-4-yl)pyrazolo[1,5-a]pyridine-3-carbonitrile]: 13 nM; for `CC(=O)N1CCC(n2ncc(-c3cc(Sc4ccc(F)cn4)c4c(C#N)cnn4c3)c2C)CC1` [Example 306, 6-(1-(1-acetylpiperidin-4-yl)-5-methyl-1H-pyrazol-4-yl)-4-((5-fluoropyridin-2-yl)thio)pyrazolo[1,5-a]pyridine-3-carbonitrile]: 6 nM; for `CO[C@H](C)CN1CCC(n2ncc(-c3cc(Sc4ccccc4C#N)c4c(C#N)cnn4c3)c2C)CC1` [Example 140, (R)-4-((2-cyanophenyl)thio)-6-(1-(1-(2-methoxypropyl)piperidin-4-yl)-5-methyl-1H-pyrazol-4-yl)pyrazolo[1,5-a]pyridine-3-carbonitrile]: 1 nM.
In turn, `Cc1c(-c2cc(Sc3ccc(F)cc3C#N)c3c(C#N)cnn3c2)cnn1C1CCNCC1` [Example 135, 4-4-((2-cyano-4-fluorophenyl)thio)-6-(5-methyl-1-(piperidin-4-yl)-1H-pyrazol-4-yl)pyrazolo[1,5-a]pyridine-3-carbonitrile] yielded a half-inhibitory concentration (IC50) of 1 nM.

The same test, now with this note: Enz FGFR2 (nM), FGFR2 wild type enzyme assay.
Consider `N#Cc1ccccc1Sc1cc(-c2cnn([C@H]3CCCC[C@@H]3O)c2)cn2ncc(C#N)c12` [Example 518, 4-((2-cyanophenyl)thio)-6-(1-((1S,2S)-2-hydroxycyclohexyl)-1H-pyrazol-4-yl)pyrazolo[1,5-a]pyridine-3-carbonitrile], for which the midpoint of inhibition, the IC50, lay at 0.4 nM.
For the molecule `N#Cc1cnn2cc(-c3ccc(N4CCNC(=O)C4)nc3)cc(Sc3ncccc3F)c12` [Example 662, 4-((3-fluoropyridin-2-yl)thio)-6-(6-(3-oxopiperazin-1-yl)pyridin-3-yl)pyrazolo[1,5-a]pyridine-3-carbonitrile], the midpoint of inhibition, the IC50, lay at 2 nM.
As to `COc1cc(Sc2cc(-c3cnn(C4CCN(C)CC4)c3C)cn3ncc(C#N)c23)c(C#N)cc1F` [Example 386, 4-((2-cyano-4-fluoro-5-methoxyphenyl)thio)-6-(5-methyl-1-(1-methylpiperidin-4-yl)-1H-pyrazol-4-yl)pyrazolo[1,5-a]pyridine-3-carbonitrile], 5 nM corresponded to half-maximal inhibition (IC50).
Same read-out and setting: as for `CC(=O)NC1CCN(c2ccc(-c3cc(Sc4ccccc4C#N)c4c(C#N)cnn4c3)cn2)C1` (centres unmarked) [Example 562, N-(1-(5-(3-cyano-4-((2-cyanophenyl)thio)pyrazolo [1,5-a]pyridin-6-yl)pyridin-2-yl)pyrrolidin-3-yl)acetamide], the figure is 1 nM; as for `Cc1c(-c2cc(Sc3ccc(F)cc3C#N)c3c(C#N)cnn3c2)cnn1[C@H]1CC[C@H](OC(=O)[C@H](N)C(C)C)CC1` [Example 635, (1r,4R)-4-(4-(3-cyano-4-((2-cyano-4-fluorophenyl)thio)pyrazolo [1,5-a]pyridin-6-yl)-5-methyl-1H-pyrazol-1-yl)cyclohexyl D-valinate], 1 nM.
The same measure, in the same setting: the same measure for `Cc1c(-c2cc(Sc3ccc(F)cc3C#N)c3c(C#N)cnn3c2)cnn1[C@H]1CCCNC1` [Example 333, (S)-4-((2-cyano-4-fluorophenyl)thio)-6-(5-methyl-1-(piperidin-3-yl)-1H-pyrazol-4-yl)pyrazolo[1,5-a]pyridine-3-carbonitrile]: 1 nM; for `N#Cc1ccccc1Sc1cc(-c2cnn(C(CO)CO)c2)cn2ncc(C#N)c12` [Example 525, 4-((2-cyanophenyl)thio)-6-(1-(1,3-dihydroxypropan-2-yl)-1H-pyrazol-4-yl)pyrazolo[1,5-a]pyridine-3-carbonitrile]: 1 nM.
Same read-out and setting: the same measure for `N#Cc1cc(F)ccc1Sc1cc(-c2ccc(N3CC[C@@H](O)C3)nc2)cn2ncc(C#N)c12` [Example 627, (R)-4-((2-cyano-4-fluorophenyl)thio)-6-(6-(3-hydroxypyrrolidin-1-yl)pyridin-3-yl)pyrazolo[1,5-a]pyridine-3-carbonitrile]: 2 nM.
Molecule `C[C@H](O)C(=O)N1CCC(n2cc(-c3cc(Sc4ccccc4C#N)c4c(C#N)cnn4c3)cn2)CC1` [Example 448, (S)-4-((2-cyanophenyl)thio)-6-(1-(1-(2-hydroxypropanoyl)piperidin-4-yl)-1H-pyrazol-4-yl)pyrazolo[1,5-a]pyridine-3-carbonitrile] gave an IC50 of 0.3 nM.
The same measure, in the same setting: the same measure for `N#Cc1ccccc1Sc1cc(-c2cnn([C@@H]3CCCNC3)c2)cn2ncc(C#N)c12` [Example 535, (R)-4-((2-cyanophenyl)thio)-6-(1-(piperidin-3-yl)-1H-pyrazol-4-yl)pyrazolo[1,5-a]pyridine-3-carbonitrile]: 0.4 nM; for `CC(=O)N1CCC(n2ncc(-c3cc(Sc4nc(C)c(F)cc4F)c4c(C#N)cnn4c3)c2C)CC1` [Example 399, 6-(1-(1-acetylpiperidin-4-yl)-5-methyl-1H-pyrazol-4-yl)-4-((3,5-difluoro-6-methylpyridin-2-yl)thio)pyrazolo[1,5-a]pyridine-3-carbonitrile]: 2 nM.
The same measure, in the same setting: as for `N#Cc1cc(F)ccc1Sc1cc(-c2ccc(N3CCOCC3)nc2)cn2ncc(C#N)c12` [Example 405, 4-((2-cyano-4-fluorophenyl)thio)-6-(6-morpholinopyridin-3-yl)pyrazolo[1,5-a]pyridine-3-carbonitrile], the figure is 2 nM; as for `CC(=O)N1CCC(n2ncc(-c3cc(Sc4ccccc4C#N)c4c(C#N)cnn4c3)c2C)CC1` [Example 436, 6-(1-(1-acetylpiperidin-4-yl)-5-methyl-1H-pyrazol-4-yl)-4-((2-cyanophenyl)thio)pyrazolo [1,5-a]pyridine-3-carbonitrile], 1 nM; as for `N#Cc1cc(F)ccc1Sc1cc(-c2ccc(N3C[C@H](O)[C@@H](O)C3)nc2)cn2ncc(C#N)c12` [Example 611, 4-((2-cyano-4-fluorophenyl)thio)-6-(6-((3S,4S)-3,4-dihydroxypyrrolidin-1-yl)pyridin-3-yl)pyrazolo[1,5-a]pyridine-3-carbonitrile], 3 nM.
Regarding `N#Cc1ccccc1Sc1cc(-c2cnn(C3CCC3)c2)cn2ncc(C#N)c12` [Example 624, 4-((2-cyanophenyl)thio)-6-(1-cyclobutyl-1H-pyrazol-4-yl)pyrazolo[1,5-a]pyridine-3-carbonitrile], the IC50 is 1 nM.
On the same count and under the same terms, the same measure for `N#Cc1ccccc1Sc1cc(-c2cnn([C@@H]3CCCC[C@H]3O)c2)cn2ncc(C#N)c12` [Example 519, 4-((2-cyanophenyl)thio)-6-(1-((1R,2R)-2-hydroxycyclohexyl)-1H-pyrazol-4-yl)pyrazolo[1,5-a]pyridine-3-carbonitirle]: 1 nM.
The same measure, in the same setting: the same measure for `N#Cc1cnn2cc(-c3cn([C@H]4CCCNC4)nc3CO)cc(Sc3ncccc3F)c12` [Example 530, 4-[(3-fluoro-2-pyridyl)sulfanyl]-6-[3-(hydroxymethyl)-1-[(3S)-3-piperidyl]pyrazol-4-yl]pyrazolo[1,5-a]pyridine-3-carbonitrile]: 69 nM; for `N#Cc1ccccc1Sc1cc(-c2cnn(CCCO)c2)cn2ncc(C#N)c12` [Example 583, 4-((2-cyanophenyl)thio)-6-(1-(3-hydroxypropyl)-1H-pyrazol-4-yl)pyrazolo[1,5-a]pyridine-3-carbonitrile]: 1 nM.
On the same count and under the same terms, the same measure for `CC(=O)N1[C@@H]2CC[C@H]1C[C@H](n1cc(-c3cc(Sc4ccccc4C#N)c4c(C#N)cnn4c3)c(C)n1)C2` [Example 409, 6-(1-((1R,3s,5S)-8-acetyl-8-azabicyclo[3.2.1]octan-3-yl)-3-methyl-1H-pyrazol-4-yl)-4-((2-cyanophenyl)thio)pyrazolo [1,5-a]pyridine-3-carbonitrile]: 5 nM.
In turn, `N#Cc1cnn2cc(-c3cnn(C[C@@H](O)CO)c3)cc(Sc3ncccc3F)c12` [Example 522, (R)-6-(1-(2,3-dihydroxypropyl)-1H-pyrazol-4-yl)-4-((3-fluoropyridin-2-yl)thio)pyrazolo[1,5-a]pyridine-3-carbonitrile] returned an IC50 of 2 nM.
Same read-out and setting: the same measure for `N#Cc1ccccc1Sc1cc(-c2cnn(CC(F)(F)F)c2)cn2ncc(C#N)c12` [Example 588]: 2 nM.
